Measurements reported in a melting point compilation (Tetko et al.; mined from patent text by program, amines drawn as free bases though some values may be those of a salt).

SMILES	melting point
CN1CCN(c2ccccc2C2=NC(C)(C)CO2)C(c2cccs2)C1 (configuration not stated)	114 to 115 °C
CSc1nc(-c2ccc(F)cc2)c(-c2ccnc(Nc3ccccc3)c2)[nH]1	228 °C
O=C(NCc1ccncc1)c1cc2ccnc(NCc3ccccc3)c2[nH]1	199 to 200 °C
C=CCCCCCCCCC(=O)N1CC[C@H]2[C@H]1[C@@H](CCC)C(=O)N2S(C)(=O)=O (relative stereo)	62 to 64.6 °C
Cc1[nH]cnc1CSCCNc1nnc(Cc2cccnc2)c(=O)[nH]1	232 to 233 °C
CN1CC(c2ccc(S(C)(=O)=O)cc2)=C(c2ccc(F)cc2)C1=O	111 °C
N[C@@H](Cc1ccc(CC(F)(F)C(F)(F)F)cc1)[C@H](O)c1cccc(Cl)c1 (racemic)	109 to 110 °C
N#Cc1ccc(-c2ccc(-c3cn4cc(C#N)ccc4n3)cc2)cc1	276 to 278 °C
CC(=O)/C=C/c1ncn2c1CN(C)C(=O)c1c(Cl)cccc1-2	235 to 237 °C
O=C(/C=C/C=C(c1ccc(F)cc1)c1ccc(F)cc1)NCCCCc1cccnc1	155 to 156 °C
Nc1nc(=O)n([C@@H]2CC[C@H](CO)O2)cc1F	147 to 149 °C
CN1CCC(OC2c3ccccc3CCn3c2nc(-c2ccccc2)c3C(N)=O)CC1 (configuration not stated)	102 °C
N#Cc1ccc2sc(CO)cc2c1	78 to 79 °C
O=C(Nc1ccc(C2CCN(Cc3ccccc3)CC2)cc1)c1ccccc1-c1ccc(C(F)(F)F)cc1	134 °C
NNC(=S)C12CC3CC(CC(C3)C1)C2	204 to 206 °C
Nc1nc2cc(OCC(=O)N3CCOCC3)ccc2c2c1nc1n2CCOC1	204 to 206 °C
Cc1nc(C)n2c1CN=C(c1ccccc1Cl)c1cc(Cl)ccc1-2	175 to 177 °C
O=c1oc2ccc(OC3CCCCO3)cc2s1 (configuration not stated)	61 to 63 °C
CCCCc1ccc2nc(Cl)cn2n1	61 to 63 °C
CCCc1ccc(Oc2c(-c3ccc(S(C)(=O)=O)cc3)cnn(CC(F)(F)F)c2=O)cc1	152 to 153 °C
CCCCOc1ccc(NS(=O)(=O)c2ccc(N3CCNC3=O)cc2)cc1	223 to 225 °C

SMILES	melting point
COC=C1CCC(C#N)(c2ccc(OC)c3c2OCCO3)CC1 (configuration not stated)	112 to 113 °C
CCn1nc(Cc2ccc([N+](=O)[O-])cc2)oc1=O	108 to 109 °C
O=CNCc1nc2ccccc2o1	98 to 99 °C
COc1ccc(/C(=C/c2ccncc2)c2ccco2)cc1OC1CCCC1	122 to 123 °C
O=C1N[C@@H](CSSc2ccccc2)C(=O)N2CCC[C@H]12	120 °C
CCn1nc(-c2ccccc2F)nc1-c1ccccc1C(F)(F)F	72 to 74 °C
NCc1ccc2c(c1)ncn2-c1cccc(-c2ccccn2)c1	224 to 229 °C
CC1(CF)C(=O)N(c2ccc(C#N)c(C(F)(F)F)c2)C(=O)N1CCF (configuration not stated)	137 to 138 °C
CC(C)C(C)(C)[Si](C)(C)OC1CCC2(C)C(=CC=C3C4CCC(=O)C4(C)CCC32)C1 (configuration not stated)	119 to 125 °C
O=C(Nc1ccc(Oc2ccnc(N3CCCCC3)n2)c2ccccc12)c1cc(F)cc(N2CCOCC2)c1	190 to 191 °C
N=c1ccccn1Cc1ccccc1	52 to 54 °C
Cc1ccccc1C(=O)Nc1ccc(C(=O)N2c3ccccc3CNc3ccccc32)cc1	68 to 71 °C
COc1cc(C(C)O)ccc1OCCCC1CNCCC1C(c1ccc(F)cc1)c1ccc(F)cc1 (configuration not stated)	132 to 135 °C
COc1ccc(-c2nc(Sc3ccccn3)[nH]c2-c2ccc(OC)cc2)cc1	94 °C
O=C(O)c1ccc(Nc2cccc3ccccc23)cc1	227 to 229 °C
COc1ccc(-c2nc(SCCCSc3nc(-c4ccc(OC)cc4)c(-c4ccc(OC)cc4)[nH]3)[nH]c2-c2ccc(OC)cc2)cc1	128 to 130 °C
CC1(C)COC(=O)N1c1nc(-c2ccc(C#N)cc2)c(F)s1	177 to 178 °C
Nc1cccc(-n2cnc3c([N+](=O)[O-])cccc32)c1	105 to 110 °C
CN1C(=O)C(NC(=O)Nc2cccc(I)c2)N=C(N2CC3CCC(CC3)C2)c2ccccc21 (single isomer, unassigned; (+))	220 to 222 °C
O=C(c1ccccc1)C1CCCS1(=O)=O (configuration not stated)	90 to 94 °C

Next, values leading:

melting point	SMILES
252 to 257 °C	COCc1ccc(-c2cn(-c3cc(C(=O)OC)c(NO)cc3C(F)(F)F)cn2)cc1
43 to 44 °C	CCOC(=O)/C=C(\C)c1cccc([N+](=O)[O-])c1
116 to 118 °C	CCCCCS(=O)(=O)NC(=O)/C=C/c1ccc(OCCC2OCCO2)cc1Oc1ncc(C(F)(F)F)cc1Cl
38 to 40 °C	CCCc1c(OCCCBr)ccc(C(C)=O)c1O
218 to 220 °C	CC1Cc2c(n(-c3ccc(Cl)c(Cl)c3)c3ncccc3c2=O)O1 (configuration not stated)
161 °C	CC(=O)CC(=O)Nc1cccc(OC(=O)NC(C)C)c1
191 to 193 °C	CCOC(=O)c1ccc(N2CCC(NCC(O)COc3cccc4[nH]c(=O)[nH]c34)CC2)nc1 (configuration not stated)
209 to 211 °C	OCc1nc2cc(Cl)cnc2[nH]1
110 to 111 °C	COC(=O)c1cc(Cl)cc([N+](=O)[O-])c1N
95 to 96 °C	CCC(=O)Nc1cc(C(C)(C)C)on1
114 to 115 °C	CC1(C)OCC(CONC(=O)c2ccc(F)c(F)c2Nc2ccc(I)cc2F)O1 (configuration not stated)
118 to 120 °C	CCOC(=O)COc1cc(C(C)C)c(NC(=O)CN2CCN(CCSc3nc4ccccc4o3)CC2)c(C(C)C)c1
196 to 197 °C	O=C(O)Cc1cncc(Cc2nc3c(F)c(F)cc(F)c3s2)c1
129 to 130 °C	COCC1CN(Cc2cc(OC)c(OC)c(OC)c2)CCN1C(=O)c1cn2ccccc2n1 (configuration not stated)
214 to 217 °C	COc1cc2ncc(C#N)c(Nc3cccc(Cl)c3)c2cc1OC
147 to 148 °C	Cc1cccc(C)c1N(CCCC(=O)N[C@@H](CO)C(=O)O)C(=O)c1ccc(Cl)cc1
170 to 171 °C	CCN1CCN(c2ccc(NC(=O)Nc3ccc(Oc4cc(Cl)ncn4)cc3)cc2OC)CC1
54 °C	C=CCc1cc(C(C)=O)c(O)cc1OCCCCC#N
170 to 171 °C	CCn1c(=O)n(O)c(=O)c2cc(F)c(N3CCCC3)cc21

melting point	SMILES
172 to 174 °C	CN(C)CC(O)c1c(-c2ccc3ccccc3c2)[nH]c2ccccc12 (configuration not stated)
105 °C	CCOc1cc(OCC)c([N+](=O)[O-])c(OCC)c1[N+](=O)[O-]
192 to 195 °C	COc1ccc(S(=O)(=O)C2(C(=O)O)CCN(Cc3ccc(Cl)c(Cl)c3)CC2)cc1
107 to 109 °C	CCCCCCCCCCCCc1cc(CC(=O)Nc2c(OC)cc(OC)cc2OC)on1
171 to 172 °C	COc1ccc(Cn2nc(-c3ccc(OC)cc3)c(-c3ccc(OC)cc3)cc2=O)cc1
125 to 126 °C	CC(C)(C)OC(=O)NC1CCCCc2cc(OCC3CCCCC3)ccc21 (configuration not stated)
162 to 165 °C	CC(C)(C)C(=O)Nc1cccc(-c2ccc(C3CCNC3=O)cc2F)n1 (configuration not stated)
115 to 116 °C	COc1cccc(CCCCCCOc2ccc(C(=O)O)c(O)c2)c1OC
132 to 134 °C	CC(C)(C)O[C@H]1C[C@H]2CN(C3=Nc4cc(Cl)ccc4Sc4ccccc43)CCN2C1
146 to 148 °C	CC(C)CC(NC(=O)Cc1ccc(NC(=O)Nc2ccccc2)cc1)c1ncc(CCC(=O)O)s1 (configuration not stated)
193 to 195 °C	COc1cc(C(=O)CS(C)(=O)=O)cc(OC)c1NC(C)=O
147 °C	CC(=O)c1ccc(O)c(-n2nc3ccccc3n2)c1
102 to 104 °C	CCOC(=O)C1=C(C)NC(C)=C(C(=O)OCC)C1c1cc(Cl)cc(Cl)c1
297 to 299 °C	O=C(Nc1cc(Cl)c(Cl)c(Cl)c1)c1cc(Br)ccc1O
207 to 208 °C	COc1ccc(C(=O)N2CCOc3ccc(C4=NNC(=O)CC4)cc32)cc1OC
129 to 132 °C	CCSc1sc(C(=O)N2CCCC2)c2c1C(=O)CC(C)(C)C2
107 to 110 °C	COC(=O)c1ccc(NC(=O)c2ccccc2OC(C)C)c(C(=O)OC)c1
180 to 181 °C	COc1cc(NC(=O)CC#N)c(Cl)cc1Cl
165 to 167 °C	COc1ccc(Oc2ccc(/C=C/C(=O)O)cc2)cc1

melting point	SMILES
147 to 148 °C	CCOC(=O)c1cn(Cc2ccccc2)nc1OCc1ccc(OC)c(OCc2nc(-c3ccco3)oc2C)c1
138 to 140 °C	COC(=O)c1ccc(Cc2cccc3ccc(C#N)cc23)c(OC)c1
98 to 110 °C	CCOC(=O)c1cnc(-c2ccc(C(F)(F)F)cc2)s1
277 to 279 °C	COc1cc(-c2ccc(O)c(C3(C)CCCCC3)c2)cc(C=C2SC(N(C)C)=NC2=O)c1O
146 to 148 °C	CCN(C(=O)N1CCN(c2cc(Cl)cc(Cl)c2)CC1)c1nc2ccccc2nc1OC
298 to 299 °C	CCCn1c(=O)n2c(C)nnc2c2[nH]cnc21
202 to 204 °C	S=C1CSc2cc(Cl)ccc2N1
158 to 159 °C	O=Cc1c2ccccc2c(CCCl)c2ccccc12
192 °C	CC(C)[Si](Oc1c(F)cc([C@@H](O)[C@@H](C)N2CCC(O)(c3ccc(Cl)cc3)CC2)cc1F)(C(C)C)C(C)C (relative stereo)
143 to 146 °C	CCc1c(C(=O)OC)[nH]c(=O)c(CC(C)C)[n+]1[O-]
232 to 234 °C	COc1ccc(C=C2c3ccccc3C(=NOCC(=O)O)c3ccccc32)cc1O
158 to 159 °C	CCCCc1nc(Cl)c(C(=O)OCC)n1Cc1ccc2oc(-c3ccccc3NS(=O)(=O)C(F)(F)F)c(Br)c2c1
164 to 166 °C	CC1(C(F)(F)F)CC(=O)C(C(=O)c2ccc(C(F)(F)F)cc2[N+](=O)[O-])C(=O)N1 (configuration not stated)
145 to 147 °C	C#CCOc1cc(-n2nc3c(Cl)cc(Cl)cn3c2=O)c(F)cc1C#N
199 °C	CCOC(=O)c1cn(C2CC2)c2nc3cc(N4CCNC(c5ccc(OC)cc5)C4)c(F)cc3cc2c1=O (racemic)
98 to 102 °C	CCCNC(=O)C(CCC(=O)NCCCOC(C)=O)NC(=O)OCc1ccccc1 (configuration not stated)
149 to 151 °C	CC(C)(C)c1cc(NS(C)(=O)=O)cc(C(C)(C)C)c1O
188 °C	OC1c2ccccc2-c2nc(-c3ccc(Cl)cc3Cl)ncc21 (configuration not stated)
